The assay relates to PC9 cells. As to the kind of experiment: CellTiter-Glo Luminescent Cell Viability Assay, PC9 cells, EGFR inhibitors and PERK activators alone and in combination. The format is cell-based. As to the method:
PC9 cells were seeded in replicates in 96-well plates and allowed to attach overnight. The following day cells were treated with the indicated compounds or compound combinations at the indicated concentrations. Cell survival was measured 72 h post-treatment using CellTiter-Glo Luminescent Cell Viability Assay (Promega, G7572). Quantification of the fold decrease in cell viability was determined for single agent activity and for combinations relative to the DMSO-treated control (as shown in Table 1A and 1B). Mean (u) and standard deviation (o) was determined for biological triplicates using Microsoft Excel.
Background: Cellular ATP, detected with luciferase, serves as a proxy for viable cell number.

Setting [1] is: combination: CCT-020312 2 μM + EGFRi 0.01 μM, PC9, 72 h, relative to DMSO.
The mark [2] stands for this setting: combination: CCT-020312 2 μM + EGFRi 0.1 μM, PC9, 72 h, relative to DMSO.
Where [3] appears, read: combination: DHBDC 50 μM + EGFRi 0.01 μM, PC9, 72 h, relative to DMSO.
Where [4] appears, read: combination: DHBDC 50 μM + EGFRi 0.1 μM, PC9, 72 h, relative to DMSO.
[5] abbreviates: combination: IPA 1 μM + EGFRi 0.01 μM, PC9, 72 h, relative to DMSO.
Where [6] appears, read: combination: IPA 1 μM + EGFRi 0.1 μM, PC9, 72 h, relative to DMSO.
Setting [7] is: combination: MK-28 20 μM + EGFRi 0.01 μM, PC9, 72 h, relative to DMSO.
The mark [8] stands for this setting: combination: MK-28 20 μM + EGFRi 0.1 μM, PC9, 72 h, relative to DMSO.
The mark [9] stands for this setting: single agent, EGFRi 0.01 μM, PC9, 72 h, relative to DMSO, mean of biological triplicates.
[10] abbreviates: single agent, EGFRi 0.1 μM, PC9, 72 h, relative to DMSO, mean of biological triplicates.
Setting [11] is: combination: CCT-020312 2 μM + EGFRi 1 μM, PC9, 72 h, relative to DMSO.
Where [12] appears, read: combination: DHBDC 50 μM + EGFRi 1 μM, PC9, 72 h, relative to DMSO.
Where [13] appears, read: combination: IPA 1 μM + EGFRi 1 μM, PC9, 72 h, relative to DMSO.
The mark [14] stands for this setting: combination: MK-28 20 μM + EGFRi 1 μM, PC9, 72 h, relative to DMSO.
Setting [15] is: single agent, EGFRi 1 μM, PC9, 72 h, relative to DMSO, mean of biological triplicates.

Data on seven compounds can be found in US20240269136A1, “EGFR INHIBITOR AND PERK ACTIVATOR IN COMBINATION THERAPY AND THEIR USE FOR TREATING CANCER” (Genentech, Inc., priority 2021, published 2024).

Read-outs that look alike come from different tables or passages of the source.

As to `C=CC(=O)N[C@H]1C=C(C)c2c(-c3cnc4ccccc4c3)c3c(N)ncnc3n2C1` (racemic) [TAS-6417, N-[rac-(8S)-4-amino-6-methyl-5-(3-quinolyl)-8,9-dihydropyrimido[5,4-b]indolizin-8-yl]prop-2-enamide], the “CCT-020312 + Low EGFRi, fold decrease in cell viability (μ)” value (“CCT-020312 + Low EGFRi, fold decrease” below) under setting [1] was found to be 505.3 fold. In addition, the “CCT-020312 + High EGFRi, fold decrease in cell viability (μ)” value (“CCT-020312 + High EGFRi, fold decrease” for short) under setting [2] is reported as 1235.6 fold. For the same compound, the “DHBDC + Low EGFRi, fold decrease in cell viability (μ)” value (shortened to “DHBDC + Low EGFRi, fold decrease”) under setting [3] came out at 50.9 fold. In addition, the “DHBDC + High EGFRi, fold decrease in cell viability (μ)” value (from here on “DHBDC + High EGFRi, fold decrease”) under setting [4] came to 71.8 fold. Further, the “IPA + Low EGFRi, fold decrease in cell viability (μ)” value (from here on “IPA + Low EGFRi, fold decrease”) under setting [5] came to 72.3 fold. For the same compound, the “IPA + High EGFRi, fold decrease in cell viability (μ)” value (shortened to “IPA + High EGFRi, fold decrease”) under setting [6] amounted to 89.5 fold. Moreover, the “MK-28 + Low EGFRI, fold decrease in cell viability (μ)” value (“MK-28 + Low EGFRI, fold decrease” for short) under setting [7] was determined as 158.3 fold. The “MK-28 + High EGFRi, fold decrease in cell viability (μ)” value (“MK-28 + High EGFRi, fold decrease” for short) under setting [8] came to 301.6 fold. Moreover, the “Low EGFRi, fold decrease in cell viability (μ)” value under setting [9] is on record as 10.5 fold. For the same compound, the “High EGFRi, fold decrease in cell viability (μ)” value under setting [10] was found to be 13.6 fold.
Turning to `C=CC(=O)Nc1cc(Nc2nccc(-c3cn(C)c4ccccc34)n2)c(OC)cc1N(C)CCN(C)C` [Osimertinib, N-[2-[2-(dimethylamino)ethyl-methyl-amino]-4-methoxy-5-[[4-(1-methylindol-3-yl)pyrimidin-2-yl]amino]phenyl]prop-2-enamide], the “CCT-020312 + High EGFRi, fold decrease” value was 836.5 fold; the “CCT-020312 + Low EGFRi, fold decrease” value came out at 38.4 fold; the “DHBDC + High EGFRi, fold decrease” value worked out at 64.2 fold; the “DHBDC + Low EGFRi, fold decrease” value is on record as 13.6 fold. Moreover, the “High EGFRi, fold decrease in cell viability (μ)” value is on record as 12.6 fold; the “IPA + High EGFRi, fold decrease” value is 67.3 fold; the “IPA + Low EGFRi, fold decrease” value came to 9.9 fold; the “Low EGFRi, fold decrease in cell viability (μ)” value is 2.1 fold. The “MK-28 + High EGFRi, fold decrease” value is reported as 220.3 fold and the “MK-28 + Low EGFRI, fold decrease” value is recorded as 72.7 fold.
On to `C=CC(=O)Nc1cccc(Oc2nc(Nc3ccc(N4CCN(C)CC4)cc3OC)ncc2Cl)c1` [WZ-4002, N-[3-[5-chloro-2-[2-methoxy-4-(4-methylpiperazin-1-yl)anilino]pyrimidin-4-yl]oxyphenyl]prop-2-enamide], for which the “CCT-020312 + Low EGFRi, fold decrease” value under setting [2] was determined as 49.8 fold. Also, the “CCT-020312 + High EGFRi, fold decrease” value under setting [11] turned out to be 1482.6 fold. Besides, the “DHBDC + Low EGFRi, fold decrease” value under setting [4] came to 13.2 fold. Further, the “DHBDC + High EGFRi, fold decrease” value under setting [12] came out at 52.0 fold. Moreover, under setting [6], the “IPA + Low EGFRi, fold decrease” value was found to be 10.3 fold. The “IPA + High EGFRi, fold decrease” value under setting [13] stood at 106.0 fold. Further, the “MK-28 + Low EGFRI, fold decrease” value under setting [8] was 120.3 fold. Moreover, the “MK-28 + High EGFRi, fold decrease” value under setting [14] amounted to 422.1 fold. In addition, the “Low EGFRi, fold decrease in cell viability (μ)” value under setting [10] stood at 2.6 fold. For the same compound, the “High EGFRi, fold decrease in cell viability (μ)” value under setting [15] came to 13.5 fold.
With `Cc1cc(C(=O)Nc2nc3cccc(Cl)c3n2[C@@H]2CCCCN(C(=O)/C=C/CN(C)C)C2)ccn1` (racemic) [Nazartinib, N-[7-chloro-1-[rac-(3R)-1-[rac-(E)-4-(dimethylamino)but-2-enoyl]azepan-3-yl]benzimidazol-2-yl]-2-methyl-pyridine-4-carboxamide], the “CCT-020312 + Low EGFRi, fold decrease” value under setting [2] worked out at 255.4 fold. Under setting [11], the “CCT-020312 + High EGFRi, fold decrease” value was found to be 1514.1 fold. Also, under setting [4], the “DHBDC + Low EGFRi, fold decrease” value is listed as 25.8 fold. In addition, the “DHBDC + High EGFRi, fold decrease” value under setting [12] is 53.6 fold. In addition, the “IPA + Low EGFRi, fold decrease” value under setting [6] is given as 44.0 fold. Under setting [13], the “IPA + High EGFRi, fold decrease” value was determined as 205.5 fold. Also, the “MK-28 + Low EGFRI, fold decrease” value under setting [8] turned out to be 130.5 fold. The “MK-28 + High EGFRi, fold decrease” value under setting [14] is given as 421.8 fold. Further, the “Low EGFRi, fold decrease in cell viability (μ)” value under setting [10] came to 6.3 fold. The “High EGFRi, fold decrease in cell viability (μ)” value under setting [15] was determined as 15.0 fold.
As to `COc1cc2ncnc(Nc3ccc(F)c(Cl)c3)c2cc1NC(=O)/C=C/CN1CCCCC1` [Dacomitinib, (E)-N-[4-(3-chloro-4-fluoro-anilino)-7-methoxy-quinazolin-6-yl]-4-(1-piperidyl)but-2-enamide], the “CCT-020312 + Low EGFRi, fold decrease” value under setting [1] worked out at 731.1 fold. Besides, the “CCT-020312 + High EGFRi, fold decrease” value under setting [2] was determined as 1325.3 fold. For the same compound, the “DHBDC + Low EGFRi, fold decrease” value under setting [3] stood at 66.5 fold. Further, the “DHBDC + High EGFRi, fold decrease” value under setting [4] is 85.2 fold. The “IPA + Low EGFRi, fold decrease” value under setting [5] was determined as 79.2 fold. Besides, the “IPA + High EGFRi, fold decrease” value under setting [6] worked out at 275.2 fold. Besides, under setting [7], the “MK-28 + Low EGFRI, fold decrease” value worked out at 170.8 fold. Under setting [8], the “MK-28 + High EGFRi, fold decrease” value worked out at 241.8 fold. Moreover, under setting [9], the “Low EGFRi, fold decrease in cell viability (μ)” value was 13.6 fold. Besides, the “High EGFRi, fold decrease in cell viability (μ)” value under setting [10] amounted to 14.5 fold.
On to `C=CC(=O)Nc1cccc(Nc2nc(Nc3ccc(N4CCN(C(C)=O)CC4)cc3OC)ncc2C(F)(F)F)c1` [Rociletinib, N-[3-[[2-[4-(4-acetylpiperazin-1-yl)-2-methoxy-anilino]-5-(trifluoromethyl)pyrimidin-4-yl]amino]phenyl]prop-2-enamide], for which the “CCT-020312 + Low EGFRi, fold decrease” value under setting [2] is on record as 5.1 fold. Further, under setting [11], the “CCT-020312 + High EGFRi, fold decrease” value came to 446.1 fold. Besides, the “DHBDC + Low EGFRi, fold decrease” value under setting [4] came out at 5.3 fold. The “DHBDC + High EGFRi, fold decrease” value under setting [12] is 88.0 fold. For the same compound, the “IPA + Low EGFRi, fold decrease” value under setting [6] came to 6.4 fold. Moreover, the “IPA + High EGFRi, fold decrease” value under setting [13] came out at 142.3 fold. For the same compound, the “MK-28 + Low EGFRI, fold decrease” value under setting [8] is 49.2 fold. The “MK-28 + High EGFRi, fold decrease” value under setting [14] amounted to 268.9 fold. Besides, the “Low EGFRi, fold decrease in cell viability (μ)” value under setting [10] was 1.3 fold. Also, the “High EGFRi, fold decrease in cell viability (μ)” value under setting [15] is 7.0 fold.
As to `C=CC(=O)N1CCC(Oc2cc3c(Nc4ccc(Cl)c(Cl)c4F)ncnc3cc2OC)CC1` [Poziotinib, 1-[4-[4-(3,4-dichloro-2-fluoro-anilino)-7-methoxy-quinazolin-6-yl]oxy-1-piperidyl]prop-2-en-1-one], the “CCT-020312 + Low EGFRi, fold decrease” value under setting [1] came out at 716.9 fold. Also, under setting [2], the “CCT-020312 + High EGFRi, fold decrease” value was 1168.4 fold. Also, the “DHBDC + Low EGFRi, fold decrease” value under setting [3] was determined as 74.1 fold. Also, under setting [4], the “DHBDC + High EGFRi, fold decrease” value is 88.4 fold. Also, under setting [5], the “IPA + Low EGFRi, fold decrease” value stood at 107.6 fold. For the same compound, under setting [6], the “IPA + High EGFRi, fold decrease” value is reported as 132.4 fold. In addition, the “MK-28 + Low EGFRI, fold decrease” value under setting [7] is on record as 181.5 fold. For the same compound, the “MK-28 + High EGFRi, fold decrease” value under setting [8] stood at 295.2 fold. The “Low EGFRi, fold decrease in cell viability (μ)” value under setting [9] came to 14.3 fold. Moreover, the “High EGFRi, fold decrease in cell viability (μ)” value under setting [10] amounted to 15.4 fold.
